pKi: −log10 of the molar value.
What was measured:
[1] = species: Cavia porcellus; assay: Tested for naloxone pA2 activity in guinea pig ileum; format: functional
[2] = molecular target: Kappa-type opioid receptor (Cavia porcellus, UniProt P41144); assay: Tested for inhibitory effect on binding of [3H]bremazocine to opioid receptor kappa in guinea pig cerebellum membranes; format: cell membranes, Membrane
[3] = molecular target: Mu-type opioid receptor (Cavia porcellus, UniProt P97266); assay: Tested for inhibitory effect on binding of [3H]DAMGO to opioid receptor mu in guinea pig cerebellum membranes; format: cell membranes, Membrane
Chain of Mu-type opioid receptor (P97266 whole entry): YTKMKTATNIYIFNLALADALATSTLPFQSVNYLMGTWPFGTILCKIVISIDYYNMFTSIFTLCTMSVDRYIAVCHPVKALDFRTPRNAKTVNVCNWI

[4] = molecular target: Opioid receptors; mu/kappa/delta (Homo sapiens, UniProt P41145+P41143+P35372); assay: Tested for opioid receptor agonistic activity in guinea pig ileum; format: functional, tissue-based, Cavia porcellus; conditions: target entry is the homologue from another species

Chain of Kappa-type opioid receptor (P41144 whole entry): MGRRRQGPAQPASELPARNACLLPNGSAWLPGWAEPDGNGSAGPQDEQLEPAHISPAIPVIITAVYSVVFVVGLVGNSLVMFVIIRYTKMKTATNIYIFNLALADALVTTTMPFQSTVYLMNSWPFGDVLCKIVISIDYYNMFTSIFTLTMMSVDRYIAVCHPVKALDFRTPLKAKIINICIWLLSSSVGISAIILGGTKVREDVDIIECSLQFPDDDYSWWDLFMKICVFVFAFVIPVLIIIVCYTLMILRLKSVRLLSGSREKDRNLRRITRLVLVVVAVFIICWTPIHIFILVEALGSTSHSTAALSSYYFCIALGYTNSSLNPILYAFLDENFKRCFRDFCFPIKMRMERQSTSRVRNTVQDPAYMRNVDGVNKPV

Question: How did the Activity [1] turn out when `CC[C@H](C)[C@H](NC(=O)[C@H](CCCN=C(N)N)NC(=O)[C@H](CCCN=C(N)N)NC(=O)[C@H](CC(C)C)NC(=O)[C@H](Cc1ccccc1)NC(=O)CNC(=O)CNC(=O)[C@@H](N)Cc1ccc(O)cc1)C(=O)N[C@@H](CCCN=C(N)N)C(=O)N1CCC[C@@H]1C(=O)N[C@@H](CCCCN)C(=O)O` was run?
Answer: 7.2

Question: How did the Activity [1] turn out when `CN1CC[C@]23c4c5ccc(O)c4O[C@H]2[C@@H](O)C=C[C@H]3[C@H]1C5` [MORPHINE] was run?
Answer: 8.2

Question: For `CC[C@H](C)[C@H](NC(=O)[C@H](CCCN=C(N)N)NC(=O)[C@H](CCCN=C(N)N)NC(=O)[C@H](CC(C)C)NC(=O)[C@H](Cc1ccccc1)NC(=O)CNC(=O)CNC(=O)[C@H](Cc1ccc(O)cc1)NCC1CC1)C(=O)N[C@@H](CCCN=C(N)N)C(=O)N1CCC[C@@H]1C(=O)N[C@@H](CCCCN)C(=O)O`, which Activity [1] is on record?
Answer: 7.3

Question: What about the pKi [2] of the same compound?
Answer: 10.70

Question: What about the pKi [3] of the same compound?
Answer: 8.02

Question: What about the IC50 [4] of the same compound?
Answer: 2.16 nM

Question: Which results are given for `C=CCN(CC=C)[C@@H](Cc1ccc(O)cc1)C(=O)NCC(=O)NCC(=O)N[C@@H](Cc1ccccc1)C(=O)N[C@@H](CC(C)C)C(=O)N[C@@H](CCCN=C(N)N)C(=O)N[C@@H](CCCN=C(N)N)C(=O)N[C@H](C(=O)N[C@@H](CCCN=C(N)N)C(=O)N1CCC[C@@H]1C(=O)N[C@@H](CCCCN)C(=O)O)[C@@H](C)CC`?
Answer: pKi [2]: 8.44; pKi [3]: 7.50; IC50 [4]: 687 nM

Question: Which Activity [1] does the source give for `C=CCN[C@@H](Cc1ccc(O)cc1)C(=O)NCC(=O)NCC(=O)N[C@@H](Cc1ccccc1)C(=O)N[C@@H](CC(C)C)C(=O)N[C@@H](CCCN=C(N)N)C(=O)N[C@@H](CCCN=C(N)N)C(=O)N[C@H](C(=O)N[C@@H](CCCN=C(N)N)C(=O)N1CCC[C@@H]1C(=O)N[C@@H](CCCCN)C(=O)O)[C@@H](C)CC` here?
Answer: 7.6
